Measurements from paper PMC5483439, “The Effect of Pungent and Tingling Compounds from Piper nigrum L. on Background K^+ Currents” (Frontiers in Pharmacology, 2017).
Read-outs that look alike come from different tables or passages of the source.

Assays:
[1] = test system: tongue surface; parameters: method as in Dawid et al., 2012; conditions: human, filter paper on tongue; ref Dawid et al., 2012; cited from earlier work
[2] = molecular target: T1, hKCNK3 (Homo sapiens, UniProt O14649); experiment: Two-electrode voltage clamp on Xenopus laevis oocytes expressing hKCNK3; assay type: cell-based; conditions: for % of basal activity after saturating concentrations: hKCNK3 in Xenopus oocytes
T1 construct: expressed in transfected cells; host or cells: Xenopus laevis oocytes injected with cRNA (plasmid pIRES-CD8, gift of Dr. Fabrice Duprat)
T1 sequence (O14649 whole entry): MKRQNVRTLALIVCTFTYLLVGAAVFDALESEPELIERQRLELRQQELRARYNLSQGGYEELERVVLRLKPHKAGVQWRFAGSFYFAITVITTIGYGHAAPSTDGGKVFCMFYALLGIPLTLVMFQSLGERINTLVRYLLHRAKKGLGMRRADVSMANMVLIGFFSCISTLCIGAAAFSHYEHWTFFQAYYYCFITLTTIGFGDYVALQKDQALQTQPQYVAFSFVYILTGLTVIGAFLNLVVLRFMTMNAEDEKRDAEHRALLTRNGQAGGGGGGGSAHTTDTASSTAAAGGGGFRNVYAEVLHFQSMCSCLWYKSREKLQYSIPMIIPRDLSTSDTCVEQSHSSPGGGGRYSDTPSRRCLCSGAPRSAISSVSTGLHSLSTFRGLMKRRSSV
Excerpt: Human KCNK3 (TASK-1, K2P3.1) cloned into the expression vector pIRES-CD8 was a gift from Dr. Fabrice Duprat (Institut National de la Santé et de la Recherche Médicale, Antipolis, France). Human KCNK18 (hTRESK, K2P18.1), cloned into the plasmid pEXO, was a gift from Dr. P. Enyedi (Semmelweis University, Budapest, Hungary). These plasmids were linearized with the restriction enzymes BamHI and XbaI, respectively, and then used as templates for in vitro transcription. Human KCNK9 (hTASK-3, K2P9.1) cloned into the expression vector pCR4-TOPO, was purchased from Imagenes (Berlin, Germany). The plasmid was linearized with the restriction enzyme SspI, to generate a linear cDNA template for in vitro transcription. mKCNK3 was isolated from mouse heart by standard procedures and inserted into pSGEM. mKCNK9 and mKCNK18 were kindly provided by Dr. D. Bayliss (University of Virginia, Charlottesville, VA, United States) and Prof. Dr. P. Enyedi (Semmelweis University, Budapest, Hungary). Both channels were subcloned into pSGEM. The pSGEM plasmids were subsequently linearized with the restriction enzyme PacI. The capped RNAs were synthesized in the presence of the capping analog m7G(5′)ppp(5′)G using the AmpliCap-T7 Message Maker kit (Epicentre, Madison, WI, United States). The cRNA was dissolved in nuclease-free water to obtain a final concentration of 100 ng/μL.
The expression in Xenopus laevis oocytes was essentially performed as previously described ([Beltrán et al., 2013]). Briefly, mature female Xenopus laevis frogs were anesthetized with 0.15% MS-222, and surgery was performed according to standard methods, where the extracted ovarian lobes were placed into Ca^2+-free Barth solution containing collagenase type II (Worthington Biochemical Corporation, Lakewood, NJ, United States) and kept for 90 min on a shaker at 40 rpm (room temperature). Healthy stage V and VI oocytes were selected for injection with cRNA coding for the proteins of interest. Thirty nanoliters of cRNA (100 ng/μL) of each channel were injected using a Microinjector Micro 4 ^TM (World Precision Instruments). After injection, the oocytes were kept in ND96 (96 mM NaCl; 2 mM KCl; 1.8 mM CaCl2; 1 mM MgCl2; 2.5 mM Sodium pyruvate; 10 mM, HEPES [4-(2-hydroxyethyl)-1-piperazineethanesulfonic acid), pH 7.4]. The measurements were performed 24 to 72 h after injection. The oocytes were placed in a 100 μL chamber that was perfused with frog Ringer’s solution (115 mM NaCl; 2.5 mM KCl; 1.8 mM CaCl2, and 10 mM HEPES, pH 7.2). The substances were dissolved in this solution before being manually applied to the oocytes using an automatic pipette (Research pro, Eppendorf, Germany). The application time was usually three ramps (approximately 10 s). For recording, a Turbo Tec-03x (npi electronic GmbH, Tamm, Germany) amplifier was used, with an acquisition rate of 1000 Hz and a low pass filter of 20 Hz. Borosilicate glass capillaries were pulled with a Kopf vertical pipette puller. The pulled glass capillaries were filled with 3 M KCl.
A ramp series protocol was used to evaluate the activity of KCNK channels as previously described ([Beltrán et al., 2013]). Briefly, voltage ramps from –100 mV to + 50 mV ([…]) followed by a constant of +50 mV (150 ms) were applied at a time interval of 2 s. […] This value was then normalized to the average obtained from three ramps prior to the application. In most cases, the currents elicited by this voltage-clamp ramp series protocol were more than ten times larger than the background currents observed in uninjected oocytes, while also presenting the described outward rectification under physiological concentrations of intracellular and extracellular K^+ ([Goldstein et al., 2001]; [Enyedi and Czirják, 2010]). Due to these characteristics, no leakage subtraction was considered necessary. Oocytes not fulfilling these characteristics were not considered for data analysis. […]

[3] = test system: background current of mouse trigeminal neurons; experiment: Whole-cell patch clamp on cultured mouse trigeminal neurons; assay type: cell-based; conditions: 100 μM XE-991, Na+/Ca2+-free solution
Method: Trigeminal ganglia neurons were isolated from Swiss CD-1 mice (Charles River Laboratories, Sulzfeld, Germany). All experiments involving animals were carried out in accordance with the European Union Community Council’s guidelines and approved by the competent state office of the Federal Land of Northrhine Westphalia (file number 87-51.04.2010.A180). At postnatal day 2–5, the mice were sacrificed by decapitation. The brain was removed, and both trigeminal ganglia were excised. The ganglia were washed in PBS+/+ (Invitrogen, Karlsruhe, Germany) and collected in Leibovitz Medium (L15, Invitrogen) on ice. The ganglia were transferred to Dulbecco’s modified essential medium (DMEM) containing 0.025% collagenase (type IA, Sigma–Aldrich). The minced ganglia were incubated for 45 min in a humidified atmosphere (37°C, 95% humidity, 6% CO2) before trituration. The cell suspension was centrifuged at 1000 rpm for 4 min at room temperature and the pellet was resuspended in F-12 medium (Invitrogen; 31331-D-MEM/F-12, GlutaMax^TM) supplemented with 10% fetal bovine serum (FBS^TM; Invitrogen), 200 U/mL penicillin and 200 U/mL streptomycin. The cell suspension (50 μL) was then plated on poly L-lysine (0.01%) coated glass coverslips (30 mm, Sarstedt, Nümbrecht, Germany), placed in cell culture dishes (35 mm) and kept in a humidified atmosphere (37°C, 95% humidity, 6% CO2) for 1 h. Subsequently, F-12 medium (2 mL) supplemented with FBS (10%), 200 U/mL penicillin and 200 U/mL streptomycin was added to each dish. The cells were kept in an incubator (37°C, 95% humidity, 6% CO2) until use.
The recordings were performed using the whole-cell configuration of the patch-clamp technique. The cells were maintained in an extracellular recording solution containing 140 mM NaCl, 5 mM KCl, 2 mM MgCl2, 2 mM CaCl2, 10 mM HEPES and 10 mM glucose, pH 7.4. The Ca^2+ and Na^+- free extracellular solution contained: 140 mM NMDG-Cl, 5 mM KCl, 2 mM MgCl2, 5 mM EGTA, 10 mM HEPES, pH 7.4. The patch electrodes were pulled from borosilicate glass (1.2 mm OD × 1.17 mm ID; Harvard apparatus, Edenbridge, Kent, United Kingdom) and fire polished to 2.5–4 MΩ tip resistance using a horizontal pipette puller (Zeitz Instruments, Munich, Germany) to obtain a patch of approximately 1–2 μm diameter. The pipette solution contained 140 mM KCl, 1 mM MgCl2, and 10 mM HEPES, pH 7.4. All recordings were performed at room temperature with an EPC7 amplifier (List-Medical Electronic, Darmstadt, Germany). The capacity and serial resistance were adjusted manually. The substances were applied via a custom-made manifold superfusion device. […] The data were acquired using Pulse software (HEKA, Lambrecht, Germany) and analyzed with PulseFit (HEKA, Lambrecht, Germany). Unless otherwise stated, the data are expressed as the mean ± SEM. […]

Compound | pungent threshold concentration [1] [nmol/cm^2] | tingling threshold concentration [1] [nmol/cm^2] | other results
CC(C)CNC(=O)/C=C/C=C/CCCCCC/C=C/c1ccc2c(c1)OCO2 [4c, guineensine] | 810.1 |  | IC50 [2]: 90.9 ± 12.7 µM; % of basal activity after saturating concentrations [2]: 48 ± 2.8%
CCCC/C=C\CCCCCCC/C=C/C=C/C(=O)NCC(C)C [5c, (2E,4E,13Z)-N-isobutyl-octadeca-2,4,13-trienamide] | 540.5 | 2162.1 | 
CCCCC/C=C\CCCCCC/C=C/C=C/C(=O)NCC(C)C [6c, (2E,4E,12Z)-N-isobutyl-octadeca-2,4,12-trienamide] | 540.5 | 2162.1 | 
CCCCCCCCCCCCC/C=C/C=C/C(=O)NCC(C)C [7c, (2E,4E)-N-isobutyl-octadeca-2,4-dienamide] | 763.0 |  | 
CCCC/C=C\CCCCCCCCC/C=C/C=C/C(=O)NCC(C)C [8c, (2E,4E,15Z)-N-isobutyl-eicosa-2,4,15-trienamide] | 741.2 | 1482.3 | 
CCCCC/C=C\CCCCCCCC/C=C/C=C/C(=O)NCC(C)C [9c, (2E,4E,14Z)-N-isobutyl-eicosa-2,4,14-trienamide] | 741.2 | 1482.3 | 
O=C1c2ccccc2C(Cc2ccncc2)(Cc2ccncc2)c2ccccc21 [XE-991, reference compound] |  |  | effect of pre-incubation on background current [3]: marked decrease
(2E,4E,13/12Z)-N-isobutyl-octadeca-2,4,12/13-trienamide [5c/6c] |  |  | IC50 ([2]; Xenopus oocytes, current at +50 mV normalized to pre-application, read-out: IC50 on hKCNK3): 70 ± 32.8 µM; % of basal activity after saturating concentrations [2]: 57 ± 7%
